The target of test [1] is T1, Alkaline phosphatase, tissue-nonspecific isozyme (Homo sapiens, UniProt P05186).
T1 sequence (P05186 whole entry): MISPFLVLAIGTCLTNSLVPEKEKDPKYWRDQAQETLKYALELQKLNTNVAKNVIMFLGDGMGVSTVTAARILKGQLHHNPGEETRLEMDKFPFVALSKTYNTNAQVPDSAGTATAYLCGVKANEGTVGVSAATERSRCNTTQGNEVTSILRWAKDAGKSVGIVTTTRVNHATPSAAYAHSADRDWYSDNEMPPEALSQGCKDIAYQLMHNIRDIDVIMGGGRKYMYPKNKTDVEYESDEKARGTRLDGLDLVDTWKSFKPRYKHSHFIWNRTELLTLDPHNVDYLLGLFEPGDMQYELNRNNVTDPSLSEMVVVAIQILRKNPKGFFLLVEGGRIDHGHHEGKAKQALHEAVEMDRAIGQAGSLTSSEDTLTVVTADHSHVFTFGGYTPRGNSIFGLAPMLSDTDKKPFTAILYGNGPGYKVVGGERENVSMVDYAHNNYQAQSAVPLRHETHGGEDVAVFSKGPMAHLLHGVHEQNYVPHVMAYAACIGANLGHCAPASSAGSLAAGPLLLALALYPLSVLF
The experiment in a line: TNAP enzyme inhibition by screening hits, dose response, selectivity assay for mouse IAP inhibitor project, biochemical, human TNAP, uHTS hits (AID 488906). The test is classed as functional.

The target in test [2] is Intestinal-type alkaline phosphatase (Mus musculus, UniProt P24822). In words: PubChem AID 488785. The test is classed as functional.
Sequence of Intestinal-type alkaline phosphatase (Mus musculus, UniProt P24822) (P24822 whole entry, the tested form may be a part): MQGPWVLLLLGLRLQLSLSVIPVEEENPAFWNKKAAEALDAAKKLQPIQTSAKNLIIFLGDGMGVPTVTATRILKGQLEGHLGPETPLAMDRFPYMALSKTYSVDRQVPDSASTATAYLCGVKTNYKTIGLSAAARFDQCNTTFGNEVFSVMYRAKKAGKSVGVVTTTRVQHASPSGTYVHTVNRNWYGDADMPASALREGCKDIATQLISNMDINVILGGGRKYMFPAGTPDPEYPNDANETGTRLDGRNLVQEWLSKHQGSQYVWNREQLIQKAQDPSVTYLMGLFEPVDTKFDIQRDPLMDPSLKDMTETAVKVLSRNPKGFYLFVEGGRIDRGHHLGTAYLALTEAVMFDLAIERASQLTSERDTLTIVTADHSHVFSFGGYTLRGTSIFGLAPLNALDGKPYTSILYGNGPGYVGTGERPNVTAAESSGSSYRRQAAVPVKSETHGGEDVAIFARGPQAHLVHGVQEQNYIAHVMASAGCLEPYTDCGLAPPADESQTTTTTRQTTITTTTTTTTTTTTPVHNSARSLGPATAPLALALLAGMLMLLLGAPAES
The target in test [3] is T2, RNA-binding protein pos-1 (Caenorhabditis elegans, UniProt G5EF15).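 Also: purified POS-1 fused to maltose binding protein made in E. coli; potency of compounds blocking POS-1 binding to fluorescent RNA.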
T2 sequence (G5EF15 whole entry): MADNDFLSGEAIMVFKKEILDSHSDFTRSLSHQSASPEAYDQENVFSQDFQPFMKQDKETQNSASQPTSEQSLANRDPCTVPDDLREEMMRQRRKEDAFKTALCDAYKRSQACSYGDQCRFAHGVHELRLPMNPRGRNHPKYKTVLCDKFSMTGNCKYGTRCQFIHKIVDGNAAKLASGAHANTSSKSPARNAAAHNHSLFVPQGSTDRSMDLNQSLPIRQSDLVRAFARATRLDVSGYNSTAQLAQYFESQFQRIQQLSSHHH
In words: inhibitors of POS-1/mex-3 RNA binding, dose response, biochemical, fluorescence polarization (AID 1964). (Fluorescence polarisation rises when a labelled molecule tumbles more slowly, as on binding a larger partner.)

The target in test [4] is Intestinal-type alkaline phosphatase (Homo sapiens, UniProt P09923). In words: inhibition of human intestinal alkaline phosphatase – biochemical, dose response (AID 488876). In kind it is functional.
Sequence of Intestinal-type alkaline phosphatase (Homo sapiens, UniProt P09923) (P09923 whole entry): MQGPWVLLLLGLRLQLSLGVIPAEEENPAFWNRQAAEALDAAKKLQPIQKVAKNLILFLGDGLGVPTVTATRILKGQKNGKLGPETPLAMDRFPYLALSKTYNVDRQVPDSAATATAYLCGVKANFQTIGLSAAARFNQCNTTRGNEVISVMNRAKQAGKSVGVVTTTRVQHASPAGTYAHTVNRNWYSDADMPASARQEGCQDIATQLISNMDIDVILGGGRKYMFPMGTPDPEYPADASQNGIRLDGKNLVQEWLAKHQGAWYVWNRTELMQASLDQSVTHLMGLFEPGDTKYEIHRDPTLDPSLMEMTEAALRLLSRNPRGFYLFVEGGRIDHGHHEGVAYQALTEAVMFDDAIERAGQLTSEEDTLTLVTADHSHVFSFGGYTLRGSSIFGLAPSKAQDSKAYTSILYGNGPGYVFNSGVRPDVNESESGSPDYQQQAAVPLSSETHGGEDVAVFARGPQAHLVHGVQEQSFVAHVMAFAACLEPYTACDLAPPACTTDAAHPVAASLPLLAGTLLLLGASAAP
In the next test the target is Large T antigen (Simian virus 40, UniProt P03070). The test is classed as functional, Betapolyomavirus macacae.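 Also: Confirmatory-stage PubChem screen for compounds that inhibit SV40 T antigen.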
Sequence of Large T antigen (P03070 whole entry): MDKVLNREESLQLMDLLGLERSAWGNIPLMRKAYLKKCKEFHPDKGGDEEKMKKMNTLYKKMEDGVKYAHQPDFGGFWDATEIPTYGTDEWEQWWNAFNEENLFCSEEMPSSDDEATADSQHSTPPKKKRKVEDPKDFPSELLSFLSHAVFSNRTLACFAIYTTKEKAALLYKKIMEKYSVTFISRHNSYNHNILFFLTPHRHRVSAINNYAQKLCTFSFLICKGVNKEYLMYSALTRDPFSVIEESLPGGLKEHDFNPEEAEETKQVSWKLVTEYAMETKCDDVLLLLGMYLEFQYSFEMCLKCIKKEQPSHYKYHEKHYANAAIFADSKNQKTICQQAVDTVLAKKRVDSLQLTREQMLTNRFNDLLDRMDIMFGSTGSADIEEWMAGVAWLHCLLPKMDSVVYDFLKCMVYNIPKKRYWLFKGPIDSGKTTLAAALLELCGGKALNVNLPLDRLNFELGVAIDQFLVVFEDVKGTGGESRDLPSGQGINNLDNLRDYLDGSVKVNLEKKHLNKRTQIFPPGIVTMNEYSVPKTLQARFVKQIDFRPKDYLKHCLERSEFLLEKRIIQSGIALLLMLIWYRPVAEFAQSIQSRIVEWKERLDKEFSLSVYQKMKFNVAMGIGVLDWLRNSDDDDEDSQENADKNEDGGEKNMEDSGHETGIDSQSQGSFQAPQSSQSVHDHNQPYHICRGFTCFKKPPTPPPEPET
The target of test [5] is T3, Zinc finger protein mex-5 (Caenorhabditis elegans, UniProt Q9XUB2).
T3 sequence (Q9XUB2 whole entry): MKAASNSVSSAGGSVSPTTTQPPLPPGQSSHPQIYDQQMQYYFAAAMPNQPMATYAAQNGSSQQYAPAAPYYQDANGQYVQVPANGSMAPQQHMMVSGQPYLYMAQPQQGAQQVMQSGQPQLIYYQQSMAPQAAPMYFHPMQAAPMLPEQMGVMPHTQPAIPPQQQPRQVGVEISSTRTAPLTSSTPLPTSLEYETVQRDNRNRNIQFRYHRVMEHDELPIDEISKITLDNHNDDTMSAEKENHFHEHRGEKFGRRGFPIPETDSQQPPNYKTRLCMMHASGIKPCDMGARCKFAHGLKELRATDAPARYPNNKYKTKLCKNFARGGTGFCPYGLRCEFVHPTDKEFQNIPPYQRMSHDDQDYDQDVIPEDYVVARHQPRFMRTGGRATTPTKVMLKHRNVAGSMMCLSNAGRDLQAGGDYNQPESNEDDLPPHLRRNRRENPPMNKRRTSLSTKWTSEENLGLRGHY
The experiment in a line: MEX-5/TCR-2 RNA interaction inhibitors, dose response, biochemical, C. elegans, fluorescence polarization (AID 1960).

Test [6] in a line: inhibitors of firefly luciferase expression or activity, dose response, H4 neuroglioma cells, luminescence (AID 1990). In kind it is functional, cell-based.
Test [7] is described as follows: cells. In kind it is functional, cell-based.
Test [8] is described as follows: inhibitors of SNCA 5'UTR-driven reporter translation, confirmation, H4 neuroglioma cells, luminescence (AID 1988). The test is classed as functional, cell-based.
Test [9] concerns BJ. In words: cytotoxicity toward BJ-TERT fibroblasts, dose response, cell-based, RAS-independent, luminescence (AID 1933). As to conditions: Homo sapiens. In kind it is functional.
Test [10] concerns BJ. In words: cells. In kind it is functional, cell-based. As to conditions: Homo sapiens.
The test system of another test is Streptococcus. The experiment in a line: Group A Streptococcus viability loss, dose response, counter-screen for streptokinase expression inhibitor project, luminescence, BacTiterGlo (AID 1915).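 Also: potency for reduction of bacterial viability or growth.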 The test is classed as functional, organism-based. (In general: The purpose of a counterscreen is to sort out artefacts and off-target activity.)
Test [11] deals with T4, Replicative DNA helicase DnaB (Mycobacterium tuberculosis, UniProt P9WMR3).
T4 sequence (P9WMR3 whole entry): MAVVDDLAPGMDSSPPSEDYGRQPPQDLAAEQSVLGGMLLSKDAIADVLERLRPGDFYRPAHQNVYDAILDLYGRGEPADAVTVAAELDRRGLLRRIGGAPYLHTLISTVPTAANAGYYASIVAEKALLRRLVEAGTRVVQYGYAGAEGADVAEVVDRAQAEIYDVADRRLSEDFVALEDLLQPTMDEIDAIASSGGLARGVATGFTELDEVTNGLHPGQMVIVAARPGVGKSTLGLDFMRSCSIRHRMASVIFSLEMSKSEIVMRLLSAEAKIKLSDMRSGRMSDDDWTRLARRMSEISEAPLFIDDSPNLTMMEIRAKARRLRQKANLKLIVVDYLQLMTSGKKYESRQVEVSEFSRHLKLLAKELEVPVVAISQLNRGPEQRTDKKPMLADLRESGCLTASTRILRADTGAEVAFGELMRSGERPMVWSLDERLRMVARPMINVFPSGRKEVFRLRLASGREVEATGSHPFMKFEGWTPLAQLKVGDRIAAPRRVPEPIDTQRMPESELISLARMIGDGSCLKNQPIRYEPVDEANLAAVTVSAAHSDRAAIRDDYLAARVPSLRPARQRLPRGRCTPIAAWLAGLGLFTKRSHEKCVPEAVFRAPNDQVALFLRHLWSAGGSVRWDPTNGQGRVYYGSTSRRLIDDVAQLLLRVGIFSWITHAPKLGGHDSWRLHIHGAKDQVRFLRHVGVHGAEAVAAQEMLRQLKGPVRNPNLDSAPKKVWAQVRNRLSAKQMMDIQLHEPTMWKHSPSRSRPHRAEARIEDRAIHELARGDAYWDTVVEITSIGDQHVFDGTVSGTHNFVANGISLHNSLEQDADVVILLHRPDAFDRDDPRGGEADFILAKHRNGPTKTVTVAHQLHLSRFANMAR
The experiment in a line: DnaB intein splicing inhibitors, dose response, biochemical, cell-free fluorescence (AID 449749). In kind it is functional.

In another test the target is T5, Protein RecA (Mycobacterium tuberculosis, UniProt P9WHJ3).
T5 sequence (P9WHJ3 whole entry): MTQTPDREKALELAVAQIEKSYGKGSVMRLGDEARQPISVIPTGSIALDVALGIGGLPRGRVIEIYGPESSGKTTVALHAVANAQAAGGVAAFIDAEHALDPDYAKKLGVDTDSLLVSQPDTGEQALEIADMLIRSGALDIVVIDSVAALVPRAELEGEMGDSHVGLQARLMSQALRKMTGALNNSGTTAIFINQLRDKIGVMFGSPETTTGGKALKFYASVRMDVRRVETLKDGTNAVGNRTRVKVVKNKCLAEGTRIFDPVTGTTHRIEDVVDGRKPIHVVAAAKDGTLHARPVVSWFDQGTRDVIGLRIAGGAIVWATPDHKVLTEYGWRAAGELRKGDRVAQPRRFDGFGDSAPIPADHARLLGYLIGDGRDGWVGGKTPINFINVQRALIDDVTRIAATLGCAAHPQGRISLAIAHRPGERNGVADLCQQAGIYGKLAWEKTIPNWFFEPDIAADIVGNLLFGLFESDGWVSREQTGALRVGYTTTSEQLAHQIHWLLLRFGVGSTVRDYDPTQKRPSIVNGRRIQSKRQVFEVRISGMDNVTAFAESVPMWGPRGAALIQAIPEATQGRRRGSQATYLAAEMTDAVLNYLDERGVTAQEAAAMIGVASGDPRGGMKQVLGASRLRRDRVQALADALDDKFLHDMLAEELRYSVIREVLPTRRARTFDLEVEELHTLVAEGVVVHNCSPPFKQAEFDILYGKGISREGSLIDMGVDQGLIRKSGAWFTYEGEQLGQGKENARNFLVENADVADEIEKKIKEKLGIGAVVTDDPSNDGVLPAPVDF
The experiment in a line: Fluorescence Cell-Free Homogeneous Dose Retest to Identify Inhibitors of RecA-Intein Splicing Activity. [Related pubchem assays (depositor defined):AID2097, AID2223, AID489010, AID492950]. In kind it is functional.

Test [12] is described as follows: cytotoxicity toward DRD oncogenic fibroblasts, dose response, cell-based, non-viral oncogenic, luminescence (AID 1934). As to conditions: Homo sapiens. The test is classed as functional.
For test [13], the target named is Heat shock protein HSP 90-alpha (Homo sapiens, UniProt P07900). The test is classed as functional, organism-based.
A further test concerns the target T6, Streptokinase A (Streptococcus pyogenes serotype M1, UniProt P10520).
T6 sequence (P10520 whole entry): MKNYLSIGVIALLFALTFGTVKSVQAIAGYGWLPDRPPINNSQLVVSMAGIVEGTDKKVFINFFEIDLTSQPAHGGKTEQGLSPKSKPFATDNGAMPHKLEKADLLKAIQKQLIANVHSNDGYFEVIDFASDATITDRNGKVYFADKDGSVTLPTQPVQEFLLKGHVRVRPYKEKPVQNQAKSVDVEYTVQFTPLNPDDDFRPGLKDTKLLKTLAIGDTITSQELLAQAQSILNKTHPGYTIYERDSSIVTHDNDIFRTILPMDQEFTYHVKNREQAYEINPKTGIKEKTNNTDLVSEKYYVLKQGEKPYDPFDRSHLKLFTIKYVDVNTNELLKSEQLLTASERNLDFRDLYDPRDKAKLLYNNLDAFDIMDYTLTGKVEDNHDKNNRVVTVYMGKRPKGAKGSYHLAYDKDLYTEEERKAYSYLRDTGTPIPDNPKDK
In words: S. pyogenes streptokinase expression inhibitors, potency, dose response, plasminogen activation absorbance, OD405 (AID 1914).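 Also: secreted streptokinase activity via plasminogen activation per viability signal from cell pellet.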 In kind it is functional, Streptococcus pyogenes M1 GAS.

The nature of test [14]: Luminescence Cell-Based Dose Response HTS to Identify Inhibitors of 5'UTR Stem-Loop Driven Prion Protein mRNA Translation in H4 Neuroglioblastoma Cells. [Related pubchem assays: 1827 (Project Summary), 1813 (Primary HTS)]. The test is classed as functional.
Test [15] concerns BJ. In words: cytotoxicity toward BJ-TERT-LT-ST fibroblasts, dose response, cell-based, RAS-independent, luminescence (AID 1935).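 Also: BJ fibroblasts immortalized with TERT plus LT and ST oncogenes.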 The test is classed as functional. Particulars: Homo sapiens.
For test [16], the system named is BJ. In words: cytotoxicity toward Ras-transformed BJeLR fibroblasts, dose response, cell-based, alamar blue fluorescence, cherrypicked samples (AID 2631).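 Also: confirmatory dose-response assay in RAS-dependent BJ fibroblasts engineered with TERT, LT and ST, with cytotoxicity read by fluorescence.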 In kind it is functional. As to conditions: Homo sapiens. Background: Resazurin is reduced to fluorescent resorufin, in cell work by metabolically active cells.
The subject of test [17] is Streptococcus sp. 'group A'. The experiment in a line: growth inhibition of control SK(-) GAS strain, dose response, counter-screen for streptokinase expression inhibitor project, luminescence, kanamycin, BacTiterGlo, confirmation (AID 1900). The test is classed as functional, organism-based.
Test [18] in a line: cells. In kind it is functional, cell-based. The source holds these as a separate data set.
Another test addresses Nonstructural protein 1 (Influenza A virus, UniProt Q194T2). In kind it is functional, Influenza A virus (A/California/07/2009(H1N1)).
Test [19] in a line: Counterscreen for AddAB inhibitors: absorbance-based bacterial cell-based high throughput dose response assay for inhibitors of bacterial viability. [Related pubchem assays (depositor defined):AID435030, AID449728, AID449731, AID488942, AID488955, AID488956]. The test is classed as functional.
For the next test, the target named is Exodeoxyribonuclease V (Escherichia coli (strain K12), UniProt P04993+P07648+P08394). The experiment in a line: E. coli RecBCD inhibitors, dose response, counter-screen for AddAB inhibitor project, absorbance, V66 E. coli, mutant T4 phage (AID 492957). The test is classed as functional, cell-based, Escherichia coli str. K-12 substr. MG1655.
Sequence of Exodeoxyribonuclease V (P04993 whole entry): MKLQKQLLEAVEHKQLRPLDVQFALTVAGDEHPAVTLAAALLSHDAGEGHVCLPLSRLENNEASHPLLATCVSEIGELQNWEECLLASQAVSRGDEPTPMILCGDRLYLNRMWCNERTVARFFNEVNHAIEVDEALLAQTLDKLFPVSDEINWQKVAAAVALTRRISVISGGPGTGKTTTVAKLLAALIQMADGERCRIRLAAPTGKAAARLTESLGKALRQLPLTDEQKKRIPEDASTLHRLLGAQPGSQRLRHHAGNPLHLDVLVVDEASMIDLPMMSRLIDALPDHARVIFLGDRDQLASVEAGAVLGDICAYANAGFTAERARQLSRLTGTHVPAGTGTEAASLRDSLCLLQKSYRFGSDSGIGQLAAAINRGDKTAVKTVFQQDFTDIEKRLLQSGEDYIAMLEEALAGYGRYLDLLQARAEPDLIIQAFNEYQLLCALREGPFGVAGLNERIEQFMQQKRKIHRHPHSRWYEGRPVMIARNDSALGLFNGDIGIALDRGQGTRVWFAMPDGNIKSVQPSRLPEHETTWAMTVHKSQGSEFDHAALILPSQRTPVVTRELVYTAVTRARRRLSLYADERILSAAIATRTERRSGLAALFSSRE
Sequence of Exodeoxyribonuclease V (P07648 whole entry): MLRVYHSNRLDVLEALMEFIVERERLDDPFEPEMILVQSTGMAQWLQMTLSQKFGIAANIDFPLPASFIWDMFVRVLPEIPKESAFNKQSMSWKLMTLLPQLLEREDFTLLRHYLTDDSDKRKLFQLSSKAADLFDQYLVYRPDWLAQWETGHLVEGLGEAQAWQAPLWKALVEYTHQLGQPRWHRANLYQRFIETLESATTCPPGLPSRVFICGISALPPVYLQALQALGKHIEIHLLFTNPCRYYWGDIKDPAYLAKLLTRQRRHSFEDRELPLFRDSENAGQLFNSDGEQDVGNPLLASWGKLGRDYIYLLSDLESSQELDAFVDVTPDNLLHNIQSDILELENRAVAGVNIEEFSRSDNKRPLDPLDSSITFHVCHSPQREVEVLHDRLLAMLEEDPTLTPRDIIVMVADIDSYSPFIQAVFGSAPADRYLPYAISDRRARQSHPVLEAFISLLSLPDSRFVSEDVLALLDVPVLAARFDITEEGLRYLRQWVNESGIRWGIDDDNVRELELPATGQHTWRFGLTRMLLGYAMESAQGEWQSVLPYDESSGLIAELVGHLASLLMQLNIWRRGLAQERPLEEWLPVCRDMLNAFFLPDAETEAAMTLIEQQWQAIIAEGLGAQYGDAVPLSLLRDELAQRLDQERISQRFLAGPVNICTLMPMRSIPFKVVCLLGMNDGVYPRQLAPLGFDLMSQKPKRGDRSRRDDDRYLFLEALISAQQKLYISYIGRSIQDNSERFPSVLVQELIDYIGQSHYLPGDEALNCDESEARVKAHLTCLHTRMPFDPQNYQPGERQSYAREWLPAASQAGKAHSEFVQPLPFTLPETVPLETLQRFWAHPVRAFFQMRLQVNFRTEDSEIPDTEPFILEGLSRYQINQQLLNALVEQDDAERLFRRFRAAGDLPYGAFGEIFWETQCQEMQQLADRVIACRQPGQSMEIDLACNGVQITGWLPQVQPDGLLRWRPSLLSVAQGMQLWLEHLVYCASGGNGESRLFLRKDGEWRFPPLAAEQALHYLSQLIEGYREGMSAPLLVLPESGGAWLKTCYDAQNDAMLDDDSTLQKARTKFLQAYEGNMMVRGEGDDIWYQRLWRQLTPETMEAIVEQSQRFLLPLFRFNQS
Sequence of Exodeoxyribonuclease V (P08394 whole entry): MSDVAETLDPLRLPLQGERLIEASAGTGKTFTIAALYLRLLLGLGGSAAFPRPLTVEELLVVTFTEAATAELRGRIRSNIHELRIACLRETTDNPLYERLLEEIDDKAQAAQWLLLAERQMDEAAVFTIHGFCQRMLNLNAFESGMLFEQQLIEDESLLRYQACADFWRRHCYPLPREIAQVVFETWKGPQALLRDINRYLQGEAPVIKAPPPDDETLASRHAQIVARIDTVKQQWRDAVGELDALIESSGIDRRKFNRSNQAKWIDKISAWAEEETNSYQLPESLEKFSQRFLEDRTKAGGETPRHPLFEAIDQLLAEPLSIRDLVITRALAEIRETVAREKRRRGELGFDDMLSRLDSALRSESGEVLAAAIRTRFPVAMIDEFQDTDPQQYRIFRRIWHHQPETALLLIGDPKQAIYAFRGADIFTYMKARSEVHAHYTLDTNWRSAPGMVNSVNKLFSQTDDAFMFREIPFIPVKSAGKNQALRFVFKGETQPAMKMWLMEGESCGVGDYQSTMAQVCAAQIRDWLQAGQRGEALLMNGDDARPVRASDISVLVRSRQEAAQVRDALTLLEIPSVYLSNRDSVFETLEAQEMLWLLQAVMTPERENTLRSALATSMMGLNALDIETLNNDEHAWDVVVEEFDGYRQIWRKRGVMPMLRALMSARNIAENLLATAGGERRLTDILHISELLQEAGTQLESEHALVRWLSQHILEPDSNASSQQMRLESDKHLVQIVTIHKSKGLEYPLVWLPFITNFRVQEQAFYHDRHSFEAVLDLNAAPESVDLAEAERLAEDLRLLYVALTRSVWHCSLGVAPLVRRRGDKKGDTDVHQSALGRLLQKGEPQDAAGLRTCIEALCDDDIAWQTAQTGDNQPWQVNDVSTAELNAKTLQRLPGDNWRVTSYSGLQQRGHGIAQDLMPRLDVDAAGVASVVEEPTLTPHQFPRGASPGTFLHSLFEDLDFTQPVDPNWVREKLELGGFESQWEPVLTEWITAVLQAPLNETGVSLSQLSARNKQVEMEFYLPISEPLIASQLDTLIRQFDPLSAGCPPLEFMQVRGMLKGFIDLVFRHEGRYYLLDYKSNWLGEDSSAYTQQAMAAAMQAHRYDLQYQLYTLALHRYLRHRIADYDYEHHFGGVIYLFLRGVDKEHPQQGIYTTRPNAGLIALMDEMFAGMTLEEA
The next test concerns INS1. The experiment in a line: beta cell apoptosis inhibitors, cytokine rescue, dose response, luminescence, retest (AID 449756).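 Also: cell death triggered by IL-1 beta plus TNF-alpha plus IFN-gamma mixture; protective hits raise ATP signal compared with cytokine alone wells.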 The test is classed as functional, cell-based. As to conditions: Rattus norvegicus, INS1.

Active and inactive are the calls of the source. Rule as the data show it, for most assays here: actives have a measured EC50 and inactives only a lower limit.

Sequence of Nonstructural protein 1 (Q194T2 whole entry): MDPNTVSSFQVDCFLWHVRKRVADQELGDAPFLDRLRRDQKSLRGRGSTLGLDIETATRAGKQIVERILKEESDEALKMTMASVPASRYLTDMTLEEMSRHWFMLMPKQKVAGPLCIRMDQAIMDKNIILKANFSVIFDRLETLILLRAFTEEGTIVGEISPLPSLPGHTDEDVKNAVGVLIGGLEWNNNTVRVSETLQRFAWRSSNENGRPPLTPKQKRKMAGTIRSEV

As a reminder, the IC50 is the point on the concentration scale where inhibition reaches its midpoint. A word on the EC50: it is the concentration that produces a half-maximal response. For the compound `CCOc1ccc(S(=O)(=O)Nc2cc(Sc3nnc[nH]3)c3oc(=O)sc3c2)cc1`, the IC50 in test [1] is > 100 µM (inactive); in test [2] it was 5.37 µM (active); in [4], > 100 µM (inactive); on Large T antigen, 20.8 µM (active). Also, the concentration giving a half-maximal response (EC50) in test [3] is 65.8 µM (active); in test [5], 14.6 µM (active).

Broadly, the AC50 is the concentration at which the activity in the assay is half-maximal. As to `c1ccc(-c2nnc(-c3ccccn3)nc2NC2CCCCC2)cc1`, the EC50 in [6] was 0.513 µM (inconclusive); in the test “cells [7]”, > 350 µM (not active); in test [8], 1.66 µM (inconclusive); with BJ [9], 3.21 µM (active); with BJ [10], 4.7 µM (active); in the test on Streptococcus, 4.21 µM (active). Further, the EC50 was 16.9 µM (active) on Protein RecA; 4.27 µM (active) in test [12]; > 50 µM (not active) on Streptokinase A; 18.8 µM (active) in [14]; 3.31 µM (inconclusive) in the test with BJ [15]; 0.585 µM (inconclusive) in the test with BJ [16]. Further, the EC50 is 4.44 µM (active) in [17] and 32.6 µM (active) in the test “cells [18]”. Besides, the AC50 was 9.45 µM (active) in test [11], 3.99 µM (active) in test [13] and 3.94 µM (active) in the test on INS1. Also, the IC50 on Nonstructural protein 1 was 1.21 µM (active); in [19] it was > 39.5 µM (inactive); on Exodeoxyribonuclease V, > 39.5 µM (inactive).

Values taken from ChEMBL document CHEMBL1201862, “PubChem BioAssay data set” (2004).
